Results published in patent US12337005B2, “Methods of treating thrombosis” (UNIVERSITY OF IOWA RESEARCH FOUNDATION, priority 2020, dated 2025).

Assays:
[1] = tested on: mouse platelets; test: Glucose uptake assay, mouse platelets; type: cell-based; conditions: mouse platelets stimulated with convulxin or thrombin
Protocol: Glucose uptake was determined in activated versus non-activated platelets using 10 mM ^14C-2-deoxy-glucose. Washed platelets (2×10^8/mL) treated with vehicle (DMSO) or ML265 (50 and 100 μM) were incubated in 1× Tyrode buffer and stimulated with convulxin or thrombin for 10 minutes, placed on ice and then centrifuged at 4000 rpm for 5 minutes. The pellets were washed with cold 1×PBS and solubilized in 1N NAOH. Radioactive counts were determined using a Perkin Elmer TriCarb 2800TR liquid scintillation counter.

[2] = tested on: mouse whole blood; test: Bioflux flow chamber assay, mouse whole blood on collagen; type: cell-based; conditions: ML265 150 μM
Protocol: In vitro thrombosis assays were performed using BioFlux™ 200 (Fluxion Biosciences, USA) microfluidics flow chamber (Nayak et al., 2018). The channels were coated with Type I collagen (100 μg/ml) for one hour at room temperature and then blocked with 0.5% BSA for 30 minutes. Platelets were isolated from citrated whole blood as described above, washed, labeled with the fluorescent dye (calcein AM; 2 μM) and were reconstituted back with PPP and remaining blood containing leukocytes and RBC. The whole blood pretreated with ML265 or vehicle (DMSO) was perfused over the collagen-coated plate at shear stress 1500 s^−1 for 5 minutes. Experiments were performed in triplicates using whole blood from human and mice. The fluorescently labeled platelets/thrombi on the collagen-coated surface were analyzed using ImageJ software from NIH (Bethesda, MD, USA).

[3] = tested on: human platelets; test: In vitro platelet aggregation, human platelet-rich plasma; type: cell-based; conditions: convulxin, collagen, TRAP and ADP, ML265 50 and 100 μM
Protocol: Platelet rich plasma (PRP) or washed platelets (2×10^8/ml) treated with vehicle (DMSO) or ML265 (50 and 100 μM) were stirred (1200 rpm) at 37° C. for 2 min in a whole blood/optical lumi-aggregometer (Chrono-log; model 700-2) before the addition of agonists (convulxin, collagen, thrombin, PAR4, TRAP (PAR1 agonist) or adenosine diphosphate [ADP]). Aggregation was measured as percent change in light transmission, where 100% refers to transmittance through the blank sample (PRP/Buffer). Platelet dense granule secretion was determined by measuring the release of ATP using luciferin-luciferase reagent. To examine the effect of ML265 on ATP secretion, washed platelets were pretreated with vehicle (DMSO) or ML265 (50 and 100 μM) for 10 minutes before stimulation with various agonists. ATP release was performed in a lumi-aggregometer (Chrono-log; model 700-2) at 37° C.

[4] = target: T1, PKM2 dimers (Homo sapiens, UniProt P14618); test: Native Western blot of PKM2 dimer and tetramer in stimulated human platelets; type: cell-based; conditions: human platelets stimulated with convulxin (100 ng/ml) or thrombin (0.1 U/mL); vs vehicle
T1 construct: decreased PKM2 dimers in the human platelets stimulated with convulxin or thrombin; endogenous in cells; host or cells: human platelets from healthy volunteers
T1 sequence (P14618 2-531 limits assumed): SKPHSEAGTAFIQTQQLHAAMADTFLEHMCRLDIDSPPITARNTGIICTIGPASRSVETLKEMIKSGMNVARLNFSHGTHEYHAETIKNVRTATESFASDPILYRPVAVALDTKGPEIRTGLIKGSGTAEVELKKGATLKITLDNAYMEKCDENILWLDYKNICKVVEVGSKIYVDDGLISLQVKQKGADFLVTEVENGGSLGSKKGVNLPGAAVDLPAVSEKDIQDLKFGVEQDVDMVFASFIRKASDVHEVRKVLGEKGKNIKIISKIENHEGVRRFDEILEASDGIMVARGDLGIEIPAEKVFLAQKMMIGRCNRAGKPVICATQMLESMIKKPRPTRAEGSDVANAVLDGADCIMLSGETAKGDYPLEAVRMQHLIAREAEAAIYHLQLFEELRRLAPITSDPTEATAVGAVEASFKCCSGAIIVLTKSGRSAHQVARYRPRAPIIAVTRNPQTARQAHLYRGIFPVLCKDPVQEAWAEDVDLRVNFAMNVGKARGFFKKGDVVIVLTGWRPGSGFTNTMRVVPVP
Protocol: To obtain human platelets, blood was collected from healthy volunteers free from antiplatelet medication. Informed consent was taken. Platelets were prepared as described. Briefly, blood was collected in tubes containing anticoagulant citrate dextrose solution A and centrifuged at 180 g for 20 min. After addition of apyrase (0.6 U/ml) to PRP, platelets were sedimented by centrifugation at 800 g for 15 min. Cells were washed in buffer A (20 mM HEPES, 138 mM NaCl, 2.9 mM KCl, 1 mM MgCl2, 0.36 mM NaH2PO4, 1 mM EGTA (ethylene glycol tetraacetic acid), supplemented with 5 mM glucose, pH 6.2). Platelets were finally resuspended in buffer B (pH 7.4), which was the same as buffer ‘A’ but without EGTA and apyrase.
Platelet proteins were separated on 4-20% SDS-PAGE (sodium dodecyl sulfate-polyacrylamide gel electrophoresis) gradient gels and electrophoretic transferred to PVDF (polyvinylidene fluoride) membrane by using Bio-Rad western blotting system. For PKM2 dimer and tetramer study 6% native gels are used. Membranes were blocked with 5% BSA or skimmed milk in 10 mM Tris-HCl, 150 mM NaCl, pH 8.0 (TBS) containing 0.05% Tween-20 for one hour at room temperature. […] Blots were developed using enhanced chemiluminescence and quantified using Image J software from NIH (Bethesda, MD, USA).

[5] = tested on: male wild-type mice on C57B16/J background; test: FeCl3 injury-induced carotid artery thrombosis; type: in vivo, mouse
Protocol: Initially ML265 dissolved in DMSO was mixed with 200 μl of deionized water and administered intra-peritoneally to the at a dose of 25 and 50-mg/Kg body weight. In vivo thrombosis and tail transection assays were performed 10 minutes after administration of ML265 or vehicle infusion by a person who was blinded to the drug and vehicle infusion.
Thrombus formation in the carotid artery after the FeCl3 injury was assessed by intravital microscopy. Briefly, 8-10 weeks old mice were anesthetized using 100-mg/kg ketamine and 10-mg/kg xylazine. Platelets labeled with calcein green (2.5×10^9 platelets per kg) were infused through the retro-orbital plexus. The common carotid artery was carefully exposed and kept moist by super-fusion with warm (˜37° C.) saline. Whatman paper (0.5×1.5 mm) saturated with ferric chloride (5%) solution was applied topically for 1.5 minutes for male and 2 mins for female mice, and thrombus formation in the injured carotid vessel was monitored in real time using a Nikon upright microscope (Plan Fluor 4×/0.2 objective), and thrombus growth overtime was recorded using a high-speed electron-multiplying camera for 40 minutes or until occlusion occurred. The time to form occlusive thrombus was considered as the time required for blood to stop flowing completely for >1 minute. Videos were evaluated off-line using a Nikon computer-assisted image analysis program.

[6] = tested on: PI3 kinase-mediated Akt/GSK3β signaling; test: Western blot of Akt/GSK3β phosphorylation, mouse platelets; type: cell-based; conditions: murine platelets, convulxin or thrombin mediated, ML265 50 and 100 μM
Protocol: Platelet proteins were separated on 4-20% SDS-PAGE (sodium dodecyl sulfate-polyacrylamide gel electrophoresis) gradient gels and electrophoretic transferred to PVDF (polyvinylidene fluoride) membrane by using Bio-Rad western blotting system. For PKM2 dimer and tetramer study 6% native gels are used. Membranes were blocked with 5% BSA or skimmed milk in 10 mM Tris-HCl, 150 mM NaCl, pH 8.0 (TBS) containing 0.05% Tween-20 for one hour at room temperature. Blots were incubated for overnight with primary antibody, followed by horseradish peroxidase-labeled secondary antibody for one hour. Blots were developed using enhanced chemiluminescence and quantified using Image J software from NIH (Bethesda, MD, USA).

Cn1c2cc([S+](C)[O-])sc2c2cnn(Cc3cccc(N)c3)c(=O)c21 (stereo not shown) [ML265, 6-[(3-aminophenyl)methyl]-4,6-dihydro-4-methyl-2-(methylsulfinyl)-5H-thieno[2′,3′:4,5]pyrrolo[2,3-d]pyridazine-5-one]
glucose uptake [1]: reduced
thrombus growth rate vs vehicle control ([2]; collagen, 1500 s-1): marked reduction
percent of the area covered by platelets vs vehicle control ([2]; collagen, 1500 s-1, 5 minutes): marked reduction
rate of thrombus growth (slope over time) ([2]; vehicle slope 236.1): 61.65
stimulus-dependent platelet aggregation [3]: reduced
PKM2 dimers [4]: decreased
mice that did not occlude ([5]; ML265-pretreated wild-type mice): 50%
time to occlusion, a large number of ML265 pre-treated mice (did not occlude) ([5]; control group approximately 20 mins): > 40 min
rate of thrombus growth (slope over time) ([5]; male mice pretreated with ML265, 5% FeCl3, vehicle slope 4.862): 1.531
time to complete vessel occlusion vs vehicle ([5]; male wild-type mice pretreated with ML265): significantly prolonged
reduction in the extent of thrombus growth vs vehicle ([5]; male wild-type mice, ML265 i.p. 10 minutes before 5% FeCl3 injury): ~4 fold
Akt phosphorylation [6]: attenuated
GSK3β phosphorylation [6]: attenuated
